# Data taken from ChEMBL document CHEMBL1201862, “PubChem BioAssay data set” (2004).
#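 Five concentrations, 48 hours, 96-well plates. GI50 = concentration required for 50% inhibition of growth.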 Activity calls are given as the source filed them. Rule as the data show it: active = GI50 up to about 1.1 µM and inactive = higher.
# Assays:
# Test in all cases: NCI tumour cell line growth inhibition, 48 h
# [1] = test system: 786-0
# [2] = test system: A549
# [3] = test system: ACHN
# [4] = test system: CAKI-1
# [5] = test system: CCRF-CEM
# [6] = test system: COLO 205
# [7] = test system: DLD-1
# [8] = test system: DMS-273
# [9] = test system: HCC 2998
# [10] = test system: HCT-15
# [11] = test system: HL-60
# [12] = test system: HOP-62
# [13] = test system: HOP-92
# [14] = test system: HT-29
# [15] = test system: IGROV-1
# [16] = test system: K562
# [17] = test system: KM-20L2
# [18] = test system: KM12
# [19] = test system: LOX IMVI
# [20] = test system: LXFL 529
# [21] = test system: M14
# [22] = test system: M19-MEL
# [23] = test system: MOLT-4
# [24] = test system: Malme-3M
# [25] = test system: NCI-H226
# [26] = test system: NCI-H23
# [27] = test system: NCI-H460
# [28] = test system: NCI-H522
# [29] = test system: OVCAR-3
# [30] = test system: OVCAR-4
# [31] = test system: OVCAR-5
# [32] = test system: OVCAR-8
# [33] = test system: RPMI-8226
# [34] = test system: RXF 393
# [35] = test system: SF-268
# [36] = test system: SF-295
# [37] = test system: SF-539
# [38] = test system: SK-MEL-28
# [39] = test system: SK-MEL-2
# [40] = test system: SK-OV-3
# [41] = test system: SN12C
# [42] = test system: SNB-19
# [43] = test system: SNB-75
# [44] = test system: SR
# [45] = test system: SW-620
# [46] = test system: TK-10
# [47] = test system: U-251
# [48] = test system: UACC-257
# [49] = test system: UACC-62
# [50] = test system: UO-31
# [51] = test system: DMS-114
# [52] = test system: EKVX
# [53] = test system: HCT-116
# [54] = test system: SK-MEL-5
# [55] = test system: SNB-78
# [56] = test system: XF498
# [57] = test system: A498
structure (smiles),measurement,setting,value
C/C(=N/O)C1CC=C(S(=O)(=O)c2ccccc2)C1 (stereo unspecified),GI50,[1],> 100 µM (inactive)
same,GI50,[2],> 100 µM (inactive)
same,GI50,[3],> 100 µM (inactive)
same,GI50,[4],> 100 µM (inactive)
same,GI50,[5],> 100 µM (inactive)
same,GI50,[6],> 100 µM (inactive)
same,GI50,[7],> 100 µM (inactive)
same,GI50,[8],> 100 µM (inactive)
same,GI50,[9],> 100 µM (inactive)
same,GI50,[10],> 100 µM
same,GI50,[11],> 100 µM (inactive)
same,GI50,[12],> 100 µM (inactive)
same,GI50,[13],> 100 µM (inactive)
same,GI50,[14],> 100 µM (inactive)
same,GI50,[15],> 100 µM (inactive)
same,GI50,[16],> 100 µM (inactive)
same,GI50,[17],> 100 µM (inactive)
same,GI50,[18],> 100 µM (inactive)
same,GI50,[19],> 100 µM (inactive)
same,GI50,[20],> 100 µM (inactive)
same,GI50,[21],> 100 µM (inactive)
same,GI50,[22],> 100 µM (inactive)
same,GI50,[23],> 100 µM (inactive)
same,GI50,[24],> 100 µM (inactive)
same,GI50,[25],> 100 µM (inactive)
same,GI50,[26],> 100 µM (inactive)
same,GI50,[27],> 100 µM (inactive)
same,GI50,[28],> 100 µM (inactive)
same,GI50,[29],> 100 µM (inactive)
same,GI50,[30],> 100 µM (inactive)
same,GI50,[31],> 100 µM (inactive)
same,GI50,[32],> 100 µM (inactive)
same,GI50,[33],> 100 µM (inactive)
same,GI50,[34],> 100 µM (inactive)
same,GI50,[35],> 100 µM (inactive)
same,GI50,[36],> 100 µM (inactive)
same,GI50,[37],> 100 µM (inactive)
same,GI50,[38],> 100 µM (inactive)
same,GI50,[39],> 100 µM (inactive)
same,GI50,[40],> 100 µM (inactive)
same,GI50,[41],> 100 µM (inactive)
same,GI50,[42],> 100 µM (inactive)
same,GI50,[43],> 100 µM (inactive)
same,GI50,[44],> 100 µM (inactive)
same,GI50,[45],> 100 µM (inactive)
same,GI50,[46],> 100 µM (inactive)
same,GI50,[47],> 100 µM (inactive)
same,GI50,[48],> 100 µM (inactive)
same,GI50,[49],> 10 µM (inactive)
same,GI50,[50],> 100 µM (inactive)
CCN(CC)CCCNC(=O)Cc1ccccc1Nc1c(Cl)cccc1Cl,GI50,[1],0.465 µM (active)
same,GI50,[2],18.3 µM (inactive)
same,GI50,[3],8.53 µM (inactive)
same,GI50,[5],11.7 µM (inactive)
same,GI50,[6],13.7 µM (inactive)
same,GI50,[7],15 µM (inactive)
same,GI50,[51],13.6 µM (inactive)
same,GI50,[8],14.9 µM (inactive)
same,GI50,[52],13.7 µM (inactive)
same,GI50,[9],3.01 µM (inactive)
same,GI50,[53],14 µM (inactive)
same,GI50,[10],14.9 µM
same,GI50,[11],11.8 µM (inactive)
same,GI50,[12],16 µM (inactive)
same,GI50,[14],4.48 µM (inactive)
same,GI50,[15],18.4 µM (inactive)
same,GI50,[16],5.6 µM (inactive)
same,GI50,[17],3.81 µM (inactive)
same,GI50,[18],19.8 µM (inactive)
same,GI50,[19],12.3 µM (inactive)
same,GI50,[20],7.67 µM (inactive)
same,GI50,[21],2.82 µM (inactive)
same,GI50,[22],4.97 µM (inactive)
same,GI50,[23],11.4 µM (inactive)
same,GI50,[25],18.5 µM (inactive)
same,GI50,[26],17.9 µM (inactive)
same,GI50,[29],16 µM (inactive)
same,GI50,[30],15.7 µM (inactive)
same,GI50,[31],11.4 µM (inactive)
same,GI50,[32],16.2 µM (inactive)
same,GI50,[33],12.4 µM (inactive)
same,GI50,[34],15.8 µM (inactive)
same,GI50,[35],16.1 µM (inactive)
same,GI50,[36],18 µM (inactive)
same,GI50,[37],14.2 µM (inactive)
same,GI50,[38],12.5 µM (inactive)
same,GI50,[54],3.85 µM (inactive)
same,GI50,[40],15.3 µM (inactive)
same,GI50,[41],14.5 µM (inactive)
same,GI50,[42],16.9 µM (inactive)
same,GI50,[43],8.75 µM (inactive)
same,GI50,[55],15.9 µM (inactive)
same,GI50,[44],9.48 µM (inactive)
same,GI50,[45],16.8 µM (inactive)
same,GI50,[46],13.7 µM (inactive)
same,GI50,[47],13 µM (inactive)
same,GI50,[48],4.03 µM (inactive)
same,GI50,[49],14.3 µM (inactive)
same,GI50,[50],11.2 µM (inactive)
same,GI50,[56],8.13 µM (inactive)
O=C(O)/C(Cl)=C(\Cl)C(=O)c1ccccc1,GI50,[1],> 100 µM (inactive)
same,GI50,[57],> 100 µM (inactive)
same,GI50,[2],> 100 µM (inactive)
same,GI50,[3],> 100 µM (inactive)
same,GI50,[4],> 100 µM (inactive)
same,GI50,[5],> 100 µM (inactive)
same,GI50,[6],> 100 µM (inactive)
same,GI50,[7],> 100 µM (inactive)
same,GI50,[51],> 100 µM (inactive)
same,GI50,[8],> 100 µM (inactive)
same,GI50,[52],> 100 µM (inactive)
same,GI50,[9],> 100 µM (inactive)
same,GI50,[53],> 100 µM (inactive)
same,GI50,[10],> 100 µM
same,GI50,[11],> 100 µM (inactive)
same,GI50,[12],> 100 µM (inactive)
same,GI50,[13],> 100 µM (inactive)
same,GI50,[14],> 100 µM (inactive)
same,GI50,[15],> 100 µM (inactive)
same,GI50,[16],> 100 µM (inactive)
same,GI50,[17],> 100 µM (inactive)
same,GI50,[18],> 100 µM (inactive)
same,GI50,[19],> 100 µM (inactive)
same,GI50,[20],> 100 µM (inactive)
same,GI50,[21],> 100 µM (inactive)
same,GI50,[22],> 100 µM (inactive)
same,GI50,[23],> 100 µM (inactive)
same,GI50,[24],> 100 µM (inactive)
same,GI50,[25],> 100 µM (inactive)
same,GI50,[26],> 100 µM (inactive)
same,GI50,[27],> 100 µM (inactive)
same,GI50,[28],> 100 µM (inactive)
same,GI50,[29],> 100 µM (inactive)
same,GI50,[30],> 100 µM (inactive)
same,GI50,[31],> 100 µM (inactive)
same,GI50,[32],> 100 µM (inactive)
same,GI50,[34],> 100 µM (inactive)
same,GI50,[35],> 100 µM (inactive)
same,GI50,[36],> 100 µM (inactive)
same,GI50,[37],> 100 µM (inactive)
same,GI50,[38],> 100 µM (inactive)
same,GI50,[39],> 100 µM (inactive)
same,GI50,[54],> 100 µM (inactive)
same,GI50,[40],> 100 µM (inactive)
same,GI50,[41],> 100 µM (inactive)
same,GI50,[42],> 100 µM (inactive)
same,GI50,[43],> 100 µM (inactive)
same,GI50,[55],> 100 µM (inactive)
same,GI50,[44],> 100 µM (inactive)
same,GI50,[45],> 100 µM (inactive)
same,GI50,[46],> 100 µM (inactive)
same,GI50,[47],> 100 µM (inactive)
same,GI50,[48],> 100 µM (inactive)
same,GI50,[49],> 100 µM (inactive)
same,GI50,[50],> 100 µM (inactive)
same,GI50,[56],> 100 µM (inactive)
